Results reported in patent publication US20240109865A1, “INDAZOLE COMPOUNDS AS KINASE INHIBITORS” (TYRA BIOSCIENCES, INC., priority 2020, published 2024).

What was measured:
Assay in all cases: Kinase assay, binding constants (Kd), kinase-tagged T7 phage, qPCR
FGFR1 = FGFR1 (Homo sapiens (Human), UniProt P11362)
Procedure: (§1) Kinase-tagged T7 phage strains were prepared in an E. coli host derived from the BL21 strain. E. coli were grown to log-phase and infected with T7 phage and incubated with shaking at 32° C. until lysis. The lysates were centrifuged and filtered to remove cell debris. Streptavidin-coated magnetic beads were treated with biotinylated small molecule ligands for 30 minutes at room temperature to generate affinity resins for kinase assays. The liganded beads were blocked with excess biotin and washed with blocking buffer SeaBlock (Pierce), […], 1 mM DTT to remove unbound ligand and to reduce non-specific binding.
(§2) Test compounds were prepared as 111λ stocks in 10000 DMS0. Kds were determined using an 11-point 3-fold compound dilution series with three DMSO control points. […] The compounds were then diluted directly into the assays such that the final concentration of DMSO was 0.9%. All reactions performed in polypropylene 384-well plate. Each was a final volume of 0.02 ml. […] The beads were then re-suspended in elution buffer (1×PBS, 0.05% Tween […] non-biotinylated affinity ligand) and incubated at room temperature with shaking for 30 minutes. The kinase concentration in the eluates was measured by qPCR.
(§3) Binding constants were calculated with a standard dose-response curve using the Hill equation: […]
(§4) The Hill Slope was set to −1. Curves were fitted using a non-linear least square fit with the Levenberg-Marquardt algorithm.

FGFR2 = FGFR2 (Homo sapiens (Human), UniProt P21802)
Chain of FGFR2 (P21802 22-821): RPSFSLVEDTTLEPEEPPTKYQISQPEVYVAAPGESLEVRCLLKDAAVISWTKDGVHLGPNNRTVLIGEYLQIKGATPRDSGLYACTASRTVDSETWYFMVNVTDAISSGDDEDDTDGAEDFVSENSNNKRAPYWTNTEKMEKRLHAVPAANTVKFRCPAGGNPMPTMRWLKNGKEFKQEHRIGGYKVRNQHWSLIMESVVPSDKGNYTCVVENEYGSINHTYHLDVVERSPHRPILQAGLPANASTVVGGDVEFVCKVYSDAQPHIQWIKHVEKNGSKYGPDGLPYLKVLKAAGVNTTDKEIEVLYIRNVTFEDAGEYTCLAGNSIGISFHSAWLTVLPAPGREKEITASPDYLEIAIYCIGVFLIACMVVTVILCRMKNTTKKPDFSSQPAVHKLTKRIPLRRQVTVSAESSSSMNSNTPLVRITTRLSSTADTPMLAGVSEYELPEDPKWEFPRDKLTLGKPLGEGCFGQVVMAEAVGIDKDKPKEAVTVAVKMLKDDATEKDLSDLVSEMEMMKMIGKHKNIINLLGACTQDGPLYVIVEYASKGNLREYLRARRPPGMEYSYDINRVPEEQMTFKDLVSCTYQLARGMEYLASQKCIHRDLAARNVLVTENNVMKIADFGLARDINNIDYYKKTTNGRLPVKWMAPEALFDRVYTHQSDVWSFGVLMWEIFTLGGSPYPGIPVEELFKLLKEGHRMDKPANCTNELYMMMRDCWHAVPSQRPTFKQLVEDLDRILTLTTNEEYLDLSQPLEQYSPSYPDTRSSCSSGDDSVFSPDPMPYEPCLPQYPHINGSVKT
Procedure: as §1, §2, §3, §4

FGFR3 = FGFR3 (Homo sapiens (Human), UniProt P22607)
Chain of FGFR3 (P22607 23-806): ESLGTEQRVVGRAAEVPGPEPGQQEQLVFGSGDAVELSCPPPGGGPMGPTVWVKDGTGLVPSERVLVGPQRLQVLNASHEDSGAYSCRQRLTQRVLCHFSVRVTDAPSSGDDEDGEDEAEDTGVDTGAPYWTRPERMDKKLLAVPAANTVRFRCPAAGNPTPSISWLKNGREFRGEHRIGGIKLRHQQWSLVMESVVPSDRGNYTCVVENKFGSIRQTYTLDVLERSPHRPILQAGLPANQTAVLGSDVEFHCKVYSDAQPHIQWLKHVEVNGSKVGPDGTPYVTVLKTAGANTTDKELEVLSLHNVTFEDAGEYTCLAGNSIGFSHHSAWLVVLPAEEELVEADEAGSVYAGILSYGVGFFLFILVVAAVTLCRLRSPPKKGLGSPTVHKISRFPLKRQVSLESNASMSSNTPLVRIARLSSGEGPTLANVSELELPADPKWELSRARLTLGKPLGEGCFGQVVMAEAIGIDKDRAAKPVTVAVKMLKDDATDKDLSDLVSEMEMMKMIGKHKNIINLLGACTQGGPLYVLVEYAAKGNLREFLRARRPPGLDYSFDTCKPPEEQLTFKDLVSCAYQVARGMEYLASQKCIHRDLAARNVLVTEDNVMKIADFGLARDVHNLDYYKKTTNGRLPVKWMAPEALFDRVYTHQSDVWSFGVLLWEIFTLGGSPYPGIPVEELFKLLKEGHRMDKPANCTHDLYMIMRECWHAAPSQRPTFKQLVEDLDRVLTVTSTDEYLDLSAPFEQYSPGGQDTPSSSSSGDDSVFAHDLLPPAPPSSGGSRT
Procedure: as §1, §2, §3, §4

FGFR3 (V555M) = FGFR3 (V555M) (Homo sapiens (Human), UniProt P22607, V555M); conditions: V555M mutant
Chain of FGFR3 (V555M) (P22607 23-806 V555M): as the sequence (P22607 23-806) above, with V533M counted along it
Procedure: as §1, §2, §3, §4

FGFR4 = FGFR4 (Homo sapiens (Human), UniProt P22455)
Chain of FGFR4 (P22455 22-802): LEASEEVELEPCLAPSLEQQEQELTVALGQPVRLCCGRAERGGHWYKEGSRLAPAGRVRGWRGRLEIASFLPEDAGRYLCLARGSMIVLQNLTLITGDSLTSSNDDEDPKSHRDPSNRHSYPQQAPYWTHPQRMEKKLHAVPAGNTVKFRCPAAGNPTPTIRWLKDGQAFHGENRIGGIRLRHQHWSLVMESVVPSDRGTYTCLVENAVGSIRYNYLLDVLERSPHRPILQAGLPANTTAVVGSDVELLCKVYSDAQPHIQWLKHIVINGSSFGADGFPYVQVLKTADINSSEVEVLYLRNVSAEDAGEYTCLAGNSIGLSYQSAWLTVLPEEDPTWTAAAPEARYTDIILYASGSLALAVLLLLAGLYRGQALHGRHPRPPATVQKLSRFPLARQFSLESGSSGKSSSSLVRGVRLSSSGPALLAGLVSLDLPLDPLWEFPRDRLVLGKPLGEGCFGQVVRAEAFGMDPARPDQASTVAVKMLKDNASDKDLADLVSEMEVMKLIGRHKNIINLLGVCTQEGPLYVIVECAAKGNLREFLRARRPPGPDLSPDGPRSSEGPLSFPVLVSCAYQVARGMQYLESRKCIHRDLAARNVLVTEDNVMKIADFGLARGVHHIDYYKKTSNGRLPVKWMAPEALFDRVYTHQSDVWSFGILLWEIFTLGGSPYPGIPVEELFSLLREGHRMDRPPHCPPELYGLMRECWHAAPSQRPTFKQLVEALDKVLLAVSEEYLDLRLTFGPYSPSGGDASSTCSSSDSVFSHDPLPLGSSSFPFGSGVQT
Procedure: as §1, §2, §3, §4

Chain of FGFR1 (P11362 22-822): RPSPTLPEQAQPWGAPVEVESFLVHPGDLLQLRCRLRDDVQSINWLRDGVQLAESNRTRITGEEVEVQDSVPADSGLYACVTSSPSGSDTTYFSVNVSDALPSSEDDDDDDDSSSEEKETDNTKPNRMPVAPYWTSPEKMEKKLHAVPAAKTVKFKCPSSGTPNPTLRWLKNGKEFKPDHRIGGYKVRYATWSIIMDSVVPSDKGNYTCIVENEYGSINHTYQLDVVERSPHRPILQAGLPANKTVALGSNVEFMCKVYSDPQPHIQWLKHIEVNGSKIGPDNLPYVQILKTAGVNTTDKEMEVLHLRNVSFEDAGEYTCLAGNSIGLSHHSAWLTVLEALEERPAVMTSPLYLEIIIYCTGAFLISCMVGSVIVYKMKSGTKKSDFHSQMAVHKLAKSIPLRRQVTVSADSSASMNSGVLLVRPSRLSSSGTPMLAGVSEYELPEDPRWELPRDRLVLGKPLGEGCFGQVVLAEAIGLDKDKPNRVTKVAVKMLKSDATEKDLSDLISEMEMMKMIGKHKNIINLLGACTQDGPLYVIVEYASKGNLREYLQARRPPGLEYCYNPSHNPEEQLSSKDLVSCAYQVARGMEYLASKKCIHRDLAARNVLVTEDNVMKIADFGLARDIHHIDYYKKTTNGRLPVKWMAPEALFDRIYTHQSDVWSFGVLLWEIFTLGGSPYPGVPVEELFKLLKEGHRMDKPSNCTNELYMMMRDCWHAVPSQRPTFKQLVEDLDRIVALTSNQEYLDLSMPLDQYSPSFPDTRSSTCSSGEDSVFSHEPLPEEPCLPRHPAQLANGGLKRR

| Structure (SMILES) | Kd (FGFR1) [nM] | Kd (FGFR2) [nM] | Kd (FGFR3) [nM] | Kd (FGFR3 (V555M)) [nM] | Kd (FGFR4) [nM] |
| --- | --- | --- | --- | --- | --- |
| Cc1ncc(Cl)c([C@@H](C)Oc2ccc3[nH]nc(-c4cnc(N5CC6(CCCS(=O)(=O)C6)C5)c(C#N)c4)c3c2)c1Cl [Example 349, 5-[5-[(1R)-1-(3,5-dichloro-2-methyl-4-pyridyl)ethoxy]-1H-indazol-3-yl]-2-(6,6-dioxo-6λ^6-thia-2-azaspiro[3.5]nonan-2-yl)pyridine-3-carbonitrile] | 100 to 300 | 100 to 300 | 20 to 100 | 1 to 20 | 1 to 20 |
| Cc1cnnc(C)c1[C@@H](C)Oc1ccc2[nH]nc(-c3ccc(N4CCN5C[C@H](O)C[C@H]5C4)nc3)c2c1 [Example 176, (7R,8aS)-2-[5-[5-[(1R)-1-(3,5-dimethylpyridazin-4-yl)ethoxy]-1H-indazol-3-yl]-2-pyridyl]-3,4,6,7,8,8a-hexahydro-1H-pyrrolo[1,2-a]pyrazin-7-ol] | 1 to 20 | 1 to 20 | 1 to 20 | 1 to 20 | 1 to 20 |
| CC(C)N1CC(n2cc(-c3n[nH]c4ccc(O[C@H](C)c5c(Cl)cncc5Cl)cc34)cn2)C1 [Example 86, 5-[(1R)-1-(3,5-dichloro-4-pyridyl)ethoxy]-3-[1-(1-isopropylazetidin-3-yl)pyrazol-4-yl]-1H-indazole] | 1 to 20 | 1 to 20 | 1 to 20 | 1 to 20 | 1 to 20 |
| C[C@@H](Oc1ccc2[nH]nc(-c3cnc(N4CCC4CN(C)C)c(C#N)c3)c2c1)c1c(Cl)cncc1Cl (stereo partly drawn) [Example 363, 5-(5-((R)-1-(3,5-dichloropyridin-4-yl)ethoxy)-1H-indazol-3-yl)-2-(2-((dimethylamino)methyl)azetidin-1-yl)nicotinonitrile] | > 300 | > 300 | > 300 | > 300 | > 300 |
| Cc1cnnc(C)c1[C@@H](C)Oc1ccc2[nH]nc(-c3ccc(N4CC5(COC5)C4)nc3)c2c1 [Example 205, 6-[5-[5-[(1R)-1-(3,5-dimethylpyridazin-4-yl)ethoxy]-1H-indazol-3-yl]-2-pyridyl]-2-oxa-6-azaspiro[3.3]heptane] | 1 to 20 | 1 to 20 | 1 to 20 | 1 to 20 | 1 to 20 |
| C[C@@H](Oc1cc2c(-c3cnc(N4CC5(C4)CN(S(C)(=O)=O)C5)c(F)c3)n[nH]c2cc1F)c1c(Cl)cncc1Cl [Example 256, 5-[(1R)-1-(3,5-dichloro-4-pyridyl)ethoxy]-6-fluoro-3-[5-fluoro-6-(2-methylsulfonyl-2,6-diazaspiro[3.3]heptan-6-yl)-3-pyridyl]-1H-indazole] | 1 to 20 | 1 to 20 | 1 to 20 | 1 to 20 | 1 to 20 |
| COc1cc2[nH]nc(-c3cnc(N4CC5(C4)CN(S(C)(=O)=O)C5)c(F)c3)c2cc1O[C@H](C)c1c(Cl)cncc1Cl [Example 242, 5-[(1R)-1-(3,5-dichloro-4-pyridyl)ethoxy]-3-[5-fluoro-6-(2-methylsulfonyl-2,6-diazaspiro[3.3]heptan-6-yl)-3-pyridyl]-6-methoxy-1H-indazole] | 1 to 20 | 1 to 20 | 1 to 20 | 1 to 20 | 1 to 20 |
| C[C@@H](Oc1ccc2[nH]nc(-c3cnc(N4CC5C(O)C5C4)c(C#N)c3)c2c1)c1c(Cl)cncc1Cl (stereo partly drawn) [Example 331, 5-(5-((R)-1-(3,5-dichloropyridin-4-yl)ethoxy)-1H-indazol-3-yl)-2-(6-hydroxy-3-azabicyclo[3.1.0]hexan-3-yl)nicotinonitrile] | 100 to 300 | 100 to 300 | 1 to 20 | 1 to 20 | 1 to 20 |
| C[C@@H](Oc1ccc2[nH]nc(-c3cnc(N4CCC[C@@H]4CO)c(C#N)c3)c2c1)c1c(Cl)cncc1Cl [Example 332, 5-(5-((R)-1-(3,5-dichloropyridin-4-yl)ethoxy)-1H-indazol-3-yl)-2-((R)-2-(hydroxymethyl)pyrrolidin-1-yl)nicotinonitrile] | 20 to 100 | 20 to 100 | 1 to 20 | 1 to 20 | 1 to 20 |
| C[C@@H](Oc1ccc2[nH]nc(-c3cnc(N4CC5(C4)CN(S(C)(=O)=O)C5)c(C#N)c3)c2c1)c1c(Cl)cncc1Cl [Example 337, (R)-5-(5-(1-(3,5-dichloropyridin-4-yl)ethoxy)-1H-indazol-3-yl)-2-(6-(methylsulfonyl)-2,6-diazaspiro[3.3]heptan-2-yl)nicotinonitrile] | 20 to 100 | 100 to 300 | 20 to 100 | 1 to 20 | 1 to 20 |
| COc1cc2[nH]nc(-c3cnc(N4CC5(C4)CN(S(C)(=O)=O)C5)c(C)c3)c2cc1O[C@H](C)c1c(Cl)cncc1Cl [Example 250, 5-[(1R)-1-(3,5-dichloro-4-pyridyl)ethoxy]-6-methoxy-3-[5-methyl-6-(2-methylsulfonyl-2,6-diazaspiro[3.3]heptan-6-yl)-3-pyridyl]-1H-indazole] | 1 to 20 | 1 to 20 | 1 to 20 | 1 to 20 | 1 to 20 |
| Cc1cnnc(C)c1[C@H](C)Oc1ccc2[nH]nc(-c3ccc(N4CC5(C4)CN(S(C)(=O)=O)C5)nc3)c2c1 [Example 149, 5-[(1S)-1-(3,5-dimethylpyridazin-4-yl)ethoxy]-3-[6-(2-methylsulfonyl-2,6-diazaspiro[3.3]heptan-6-yl)-3-pyridyl]-1H-indazole] | > 300 | 100 to 300 | 20 to 100 | 20 to 100 | 100 to 300 |
| C[C@@H](Oc1ccc2[nH]nc(-c3cnn(C4CCS(=O)(=O)CC4)c3)c2c1)c1cc(F)cc(F)c1 [Example 171, 4-[4-[5-[(1R)-1-(3,5-difluorophenyl)ethoxy]-1H-indazol-3-yl]pyrazol-1-yl]thiane 1,1-dioxide] | 100 to 300 | 20 to 100 | 20 to 100 | 1 to 20 | > 300 |
| COc1cc(-c2n[nH]c3ccc(O[C@H](C)c4c(Cl)cncc4Cl)cc23)cnc1N1CC2(C1)CN(S(C)(=O)=O)C2 [Example 344, (R)-5-(1-(3,5-dichloropyridin-4-yl)ethoxy)-3-(5-methoxy-6-(6-(methylsulfonyl)-2,6-diazaspiro[3.3]heptan-2-yl)pyridin-3-yl)-1H-indazole] | > 300 | > 300 | 100 to 300 | 20 to 100 | 1 to 20 |
| C[C@@H](Oc1ccc2[nH]nc(-c3cnc(N4CC(O)C4)c(C#N)c3)c2c1)c1c(Cl)cncc1Cl [Example 302, 5-[5-[(1R)-1-(3,5-dichloro-4-pyridyl)ethoxy]-1H-indazol-3-yl]-2-(3-hydroxyazetidin-1-yl)pyridine-3-carbonitrile] | 100 to 300 | 100 to 300 | 20 to 100 | 1 to 20 | 1 to 20 |
| C[C@@H](Oc1ccc2[nH]nc(-c3cnc(N4CC(C)(N)C4)c(F)c3)c2c1)c1c(Cl)cncc1Cl [Example 265, (R)-1-(5-(5-(1-(3,5-dichloropyridin-4-yl)ethoxy)-1H-indazol-3-yl)-3-fluoropyridin-2-yl)-3-methylazetidin-3-amine] | 1 to 20 | 1 to 20 | 1 to 20 | 1 to 20 | 1 to 20 |
| C[C@@H](Oc1ccc2[nH]nc(-c3cnc(N4CC5(CN(CC(F)F)C5)C4)c(C#N)c3)c2c1)c1c(Cl)cncc1Cl [Example 330, (R)-5-(5-(1-(3,5-dichloropyridin-4-yl)ethoxy)-1H-indazol-3-yl)-2-(6-(2,2-difluoroethyl)-2,6-diazaspiro[3.3]heptan-2-yl)nicotinonitrile] | 100 to 300 | 100 to 300 | 20 to 100 | 1 to 20 | 1 to 20 |
| COc1cc(-c2n[nH]c3ccc(O[C@H](C)c4c(C)cnnc4C)cc23)cnc1N1CC2CC(C1)N2 [Example 300, 3-(5-(5-((R)-1-(3,5-dimethylpyridazin-4-yl)ethoxy)-1H-indazol-3-yl)-3-methoxypyridin-2-yl)-3,6-diazabicyclo[3.1.1]heptane] | 100 to 300 | 100 to 300 | 20 to 100 | 20 to 100 | 20 to 100 |
| COc1cc(-c2n[nH]c3ccc(O[C@H](C)c4c(C)cnnc4C)cc23)cnc1N1CCC1 [Example 304, (R)-3-(6-(azetidin-1-yl)-5-methoxypyridin-3-yl)-5-(1-(3,5-dimethylpyridazin-4-yl)ethoxy)-1H-indazole] | > 300 | > 300 | 100 to 300 | 20 to 100 | 1 to 20 |
| C[C@H](Oc1ccc2[nH]nc(-c3cnc(N4CCC4)c(C#N)c3)c2c1)c1c(Cl)cnc(F)c1Cl [Example 283, (S)-2-(azetidin-1-yl)-5-(5-(1-(3,5-dichloro-2-fluoropyridin-4-yl)ethoxy)-1H-indazol-3-yl)nicotinonitrile] | > 300 | > 300 | > 300 | > 300 | > 300 |
